The text below walks through data of publication PMC9964938, “Synthesis and Properties of Sucrose- and Lactose-Based Aromatic Ester Surfactants as Potential Drugs Permeability Enhancers” (Pharmaceuticals, 2023).

In series [1] the test system is Calu-3 monolayers. As to the kind of experiment: TEER measurement. Format: cell-based, human. As to conditions: Calu-3 cells; for effect on TEER: surfactant 4 mM in HBSS, 3 h; for decrease in TEER with respect to basal value: surfactant 4 mM, reversible. Here is the method:
TEER studies were performed in Calu-3 cells (Figure 4) to preliminarily evaluate the potential use of the synthesized sugar esters as absorption enhancers. […] .
Calu-3 cells were seeded on filter inserts Transwell® at ~200,000 cells per insert. The cells were cultured in Dulbecco Modified Eagle Medium (DMEM)-F12 to confluence for around three weeks using an air–liquid culture condition. The culture medium was changed every 48 h. […] Baseline TEER was recorded following 30 min of equilibration in HBSS. […] The cells were incubated with the samples or HBSS as a control for 3 h. During this period, TEER was measured every 30 min. The samples were then removed and the cells were washed extensively using HBSS. Culture medium was added to the basolateral chamber and a further measurement of TEER was taken at 24 h following sample application to establish TEER reversibility. The change in TEER was reported as a percentage relative to the baseline value.

A short description of series [2]: CMC by dynamic light scattering (counts). As to conditions: counts vs concentration, 25 °C. Format: physicochemical. The text has this: The DLS from the counts analysis confirmed the self-assembling properties of the amphiphiles analyzed as evidenced by the fluorescence measurements. Figure 2b reports the variation in the scattering intensities to the detector (kCps) as a function of the surfactant concentration.
As unimers, instead, the hydrodynamic sizes of the surfactant molecules were too small and the scattering properties of the solutions were not markedly different from those of the medium.
The scattering intensity to the detector (counts, kCps) was measured for different concentrations (0.03–4 mM) of surfactant solution using a Malvern Zetasizer Nano S (Malvern, Worcestershire, UK). Measurements were performed at 25 °C at a fixed laser position (4.65) and attenuation (11). CMC values were calculated from counts versus concentration plots by fitting the experimental data using the segmental linear regression model (GraphPad Prism 6 software).

A short description of series [3]: CMC by pyrene fluorescence spectroscopy. Conditions: pyrene I/III peak ratio, aqueous solution, 25 °C. Format: physicochemical. The text has this: Pyrene is a common fluorescence probe, widely employed to investigate the aggregation state of surfactant in aqueous solution, as its emission properties are strongly influenced by the polarity of the microenvironment. Specifically, a decrease in the ratio between I and III peaks is observed when the hydrophobicity increases in the surroundings of pyrene as a result of the aggregation of surfactants into micelles or supramolecular aggregates. […] As is common for surfactants, the concentration at which aggregation in aqueous solution occurs is strongly dependent on the hydrophilicity/hydrophobicity balance between the surfactant head and tail. Specifically, changes in the hydrophobicity of the surfactant tail exert a marked effect on the self-assembling properties for a surfactant bearing the same polar head. On the contrary, the variation in the sugar head has a minor effect.
The pyrene emissions in the surfactant solutions at different concentrations (0.03–4 mM) were measured using a LS 55 fluorescence spectrometer (PerkinElmer, Waltar, MA, USA) equipped with a thermostatic bath HAAKE C25P (Artisan Scientific Corporation, Champaign, IL, USA). For the analyses, three microliters of the pyrene solution in CH3OH (2 μM) were added to each of the aqueous surfactant solutions. The excitation wavelength was 334 nm. Ten acquisitions were recorded for each solution in the range of 200–700 nm at a temperature of 25 °C. The peak intensity I (λ = 372 nm) to III (λ = 384 nm) ratio was plotted against the surfactant concentrations. CMC values were calculated from the center of the sigmoid by fitting the experimental data through the Boltzmann nonlinear regression (GraphPad Prism 6 software) according to the following equation: bottom+(top−bottom)/1+10^[(logCMC−x)hill slope] where the top and bottom are the plateau of the curve and the hill slope is the steepness.

In series [4] the test system is Calu-3 monolayers. Details: method as in PMID 29970849. Conditions: Calu-3 cells, non-cytotoxic concentration, reversible; cited from earlier work.
The next series deals with Calu-3 cells. Briefly: MTT cell viability assay. Format: cell-based, human. Conditions: 3 h incubation. The protocol: All the compounds were tested to evaluate their cytotoxicity profile on Calu-3 cells. The MTT colorimetric assay, based on the reduction of a yellow tetrazolium salt MTT to purple formazan crystals by metabolically active cells, was used to measure the cellular metabolic activity as an indicator of cell viability, proliferation, and cytotoxicity. Indeed, the viable cells contain NAD(P)H-dependent oxidoreductase enzymes, which reduce MTT to formazan. […] Moreover, the LDH release assay, used to assess the level of plasma membrane damage in a cell population, was performed to evaluate the cytotoxicity of the sugar esters. LDH is in fact a stable enzyme found in all cell types and is rapidly released into the cell culture medium following damage to the plasma membrane that occurs after cell damage or death. […]
Calu-3 cells were seeded on 96-well plates at ~50,000 cells per well and were incubated to attain at least 80% confluence before the experiment. Prior to the assay, the culture medium was removed and replaced with different concentrations of surfactants (0.03 to 4.5 mM for the fluorescence spectroscopy and DLS analysis) in Hank’s balanced salt solution (HBSS). […] The supernatant was collected for the LDH assay and the cell viability was measured with the MTT assay according to the manufacturers’ instructions, with at least three repeats for each sample.

For series [5], the system named is Calu-3 monolayers. As to the kind of experiment: FITC-dextran in vitro cell permeability study. Conditions: surfactant 4 mM.
Experimental: Cell monolayers with TEER over 800 Ω were used in these studies to ensure the integrity of the monolayers. FITC-dextran MW 4000 was used as a model macromolecular drug. Prior to sample application, the culture medium was removed, and the cell layers were washed with HBSS. The cells were equilibrated in HBSS for 30 min. Sucrose ester solutions at 4 mM and dextran at a final concentration of 0.5 mg/mL in HBSS were applied to the apical side of the cells. HBSS was added to the basolateral side. A basolateral solution of 100 µL was collected at 30, 60, 90, 120, 150, and 180 min after sample application and replaced with an equivalent volume of fresh HBSS. The amount of dextran permeating the cell monolayers in 3 h was quantified by spectrofluorometric analysis.

In the case of `O=C(Cc1ccc(-c2ccccc2)cc1)OC[C@H]1O[C@H](O[C@]2(CO)O[C@H](CO)[C@@H](O)[C@@H]2O)[C@H](O)[C@@H](O)[C@@H]1O` [URB1482, β-D-fructofuranosyl 6-O-[2-(4-Phenyl)phenylethanoyl]-α-D-glucopyranoside], the “effect on TEER” value with Calu-3 monolayers [1] is “moderate action”. Moreover, in series [2], the “Dynamic Light Scattering CMC” value came out at 0.181 ± 0.026 mM. Further, the “Fluorescence Spectroscopy CMC” value in series [3] worked out at 0.095 ± 0.015 mM.
Regarding `CCCCCCCCCCCC(=O)OCC1OC(OC2C(CO)OC(O)C(O)C2O)C(O)C(O)C1O` (stereo not shown) [6′-lactose laurate], the “TEER, % of the baseline value after decrease” value in the series on Calu-3 monolayers [4] is ~ 25%.
With Lactose p-phenyl benzoate [URB1420], in the series with Calu-3 monolayers [1], the “effect on TEER” value was “most effective surfactants for decreasing TEER” and the “decrease in TEER with respect to basal value” is ~ 30%. The “Dynamic Light Scattering CMC” value in series [2] was 0.344 ± 0.034 mM. Besides, in series [3], the “Fluorescence Spectroscopy CMC” value is reported as 0.270 ± 0.015 mM.
Regarding `O=C(OC[C@H]1O[C@H](O[C@]2(CO)O[C@H](CO)[C@@H](O)[C@@H]2O)[C@H](O)[C@@H](O)[C@@H]1O)c1ccc(-c2ccccc2)cc1` [URB1481, β-D-fructofuranosyl 6-O-[2-(4-Phenyl)benzoyl]-α-D-glucopyranoside], in the series on Calu-3 monolayers [1], the “effect on TEER” value was “most effective surfactants for decreasing TEER” and the “decrease in TEER with respect to basal value” is on record as ~ 30%. Also, the “cell viability (MTT)” value with Calu-3 cells (highest tested concentration of 4.5 mM) is reported as “above 70%”. Besides, the “permeation enhancing effect on FITC-dextran Papp” value in the series with Calu-3 monolayers [5] (Calu-3 cell layers, FITC-dextran MW 4000 0.5 mg/mL) was “more prominent permeation enhancing effect”. In the series on Calu-3 monolayers [5] (Calu-3 cells, non-statistically significant vs control), the “increase in FITC-dextran permeability vs control” value was “three-fold increase”. Further, the “Dynamic Light Scattering CMC” value in series [2] is on record as 0.329 ± 0.023 mM. Moreover, the “Fluorescence Spectroscopy CMC” value in series [3] came to 0.305 ± 0.091 mM.
Regarding Lactose phenyl acetate [URB1419], the “effect on TEER” value with Calu-3 monolayers [1] was “moderate action”. Further, the “cell viability (MTT), lowest level reached” value in the series with Calu-3 cells (0.03 to 4.5 mM) is no less than 70%. In addition, the “Dynamic Light Scattering CMC” value in series [2] was 0.729 ± 0.075 mM. For the same compound, in series [3], the “Fluorescence Spectroscopy CMC” value amounted to 0.753 ± 0.084 mM.
For the compound `O=C(Cc1ccccc1)OC[C@H]1O[C@H](O[C@]2(CO)O[C@H](CO)[C@@H](O)[C@@H]2O)[C@H](O)[C@@H](O)[C@@H]1O` [URB1480, β-D-fructofuranosyl 6-O-(2-Phenylethanoyl)-α-D-glucopyranoside], in the series on Calu-3 monolayers [1], the “effect on TEER” value was “only poorly affected TEER”. In series [2], the “Dynamic Light Scattering CMC” value is listed as 0.791 ± 0.045 mM. Besides, in series [3], the “Fluorescence Spectroscopy CMC” value is listed as 0.861 ± 0.076 mM.
The like results for Lactose p-biphenyl acetate [URB1421] were, in that order, “moderate action”, 0.259 ± 0.063 mM and 0.110 ± 0.017 mM.
